Values after ≈ are worked out from the molar mass of the structure shown. Read-outs that look alike come from different tables or passages of the source.
What was measured:
Assay in all cases: microbe, parasite or virus in culture
[1] = test system: K. pneumoniae strain 170 (MLST 307, No ESBL); assay type: cell-based; conditions: K. pneumoniae 170
Experimental: (§1) The efficacy of these new BLIs was also evaluated against 18 genetically diverse WGS-characterized collection of OXA-48-positive Enterobacterales recovered as part of the Carbapenem-resistant Enterobacterales Genome Database Project (https://genomes.cnag.cat/incredble) listed in Table S2 ([13]). Combinations of clinical isolates (five pairs of Klebsiella pneumoniae, two pairs of Enterobacter cloacae, and two pairs of E. coli) were chosen for analysis: (i) nine strains carrying ESBLs; and (ii) nine strains (genetically closer available strains) without ESBLs.
(§2) The MICs of each of the individual compounds (antibiotics or inhibitors) were also determined. The MICs were determined for the E. coli isogenic expressing OXA-48 (and both OXA-48 and CTX-M-14) to assess their activity against the carbapenemase; MICs were also determined for the 18 Enterobacterales clinical isolates in order to evaluate the new inhibitors against also their resistance concomitant mechanisms. The MICs were determined in triplicate experiments, and the EUCAST 13.0 clinical breakpoints were followed (http://www.eucast.org/clinical_breakpoints).
(§3) For comparative evaluation of the activity of each inhibitor alone against the carbapenemase OXA-48, all inhibitors (at 4 mg/L) were tested in the presence of a carbapenem (ertapenem, adequate substrate) and a cephalosporin (ceftazidime, poor substrate) as reporter substrates. This prevented any possible masking effect produced by the different partner antibiotics. These assays were also performed with isogenic transformants and clinical isolates.

[2] = test system: K. pneumoniae strain 194 (MLST 392, No ESBL); assay type: cell-based; conditions: K. pneumoniae 194
Experimental: as §1, §2, §3

[3] = test system: E. coli strain 103 (MLST 10, ESBL); assay type: cell-based
Experimental: as §1, §2, §3

[4] = test system: E. coli strain 224 (MLST 127, No ESBL); assay type: cell-based; conditions: E. coli 224
Experimental: as §1, §2, §3

[5] = test system: E. cloacae strain 231 (MLST 171, No ESBL); assay type: cell-based; conditions: E. cloacae 231
Experimental: as §1, §2, §3

[6] = test system: K. pneumoniae strain 413 (MLST 147, ESBL); assay type: cell-based
Experimental: as §1, §2, §3

[7] = test system: K. pneumoniae strain 237 (MLST 147, No ESBL); assay type: cell-based; conditions: K. pneumoniae 237
Experimental: as §1, §2, §3

[8] = test system: E. coli strain 177 (MLST 131, ESBL); assay type: cell-based
Experimental: as §1, §2, §3

[9] = test system: K. pneumoniae strain 71 (MLST 15, No ESBL); assay type: cell-based; conditions: K. pneumoniae 71
Experimental: as §1, §2, §3

[10] = test system: E. coli strain 264 (MLST 131, No ESBL); assay type: cell-based; conditions: E. coli 264
Experimental: as §1, §2, §3

[11] = test system: E. cloacae strain 281 (MLST 78, No ESBL); assay type: cell-based; conditions: E. cloacae 281
Experimental: as §1, §2, §3

[12] = test system: K. pneumoniae strain 497 (MLST 11, No ESBL); assay type: cell-based; conditions: K. pneumoniae 497
Experimental: as §1, §2, §3

[13] = test system: E. cloacae strain 272 (MLST 78, ESBL); assay type: cell-based
Experimental: as §1, §2, §3

[14] = test system: K. pneumoniae strain 125 (MLST 307, ESBL); assay type: cell-based
Experimental: as §1, §2, §3

[15] = test system: E. cloacae strain 235 (MLST 171, ESBL); assay type: cell-based
Experimental: as §1, §2, §3

[16] = test system: K. pneumoniae strain 238 (MLST 15, ESBL); assay type: cell-based
Experimental: as §1, §2, §3

[17] = test system: K. pneumoniae strain 23 (MLST 392, ESBL); assay type: cell-based
Experimental: as §1, §2, §3

[18] = test system: K. pneumoniae strain 19 (MLST 11, ESBL); assay type: cell-based
Experimental: as §1, §2, §3

E. coli TG1 = assay type: cell-based; conditions: Escherichia coli
Experimental: as §2, §3

E. coli TG1 (OXA-48) = assay type: cell-based, Escherichia coli
Experimental: as §2, §3

[19] = test system: E. coli HB4 ΔompC/F (OXA-48); assay type: cell-based, Escherichia coli
Excerpt: (§4) The E. coli HB4 strain was used to gain a more complete perspective, by evaluating the involvement in resistance of a low permeability background with the carbapenemase OXA-48, as well as coproduction of an ESBL and the carbapenemase; thus, the ESBL CTX-M-14 and OXA-48 were cloned together and separately into E. coli HB4. The characteristics of these strains and transformants are summarized in Table S1, and the cloning procedures are outlined in the supplemental methods.
as §2, §3

E. coli HB4 ΔompC/F = assay type: cell-based, Escherichia coli
Excerpt: as §4, §2, §3

[20] = ceftazidime alone or with BLI at 4 mg/L
[21] = Klebsiella pneumoniae, BL alone or BL/BLI: AVI, REL, TAN, DUR 4 mg/L, VAB, XER 8 mg/L, ZID, NAC 1:1, read-out: MIC
[22] = Escherichia coli, BL alone or BL/BLI: AVI, REL, TAN, DUR 4 mg/L, VAB, XER 8 mg/L, ZID, NAC 1:1, read-out: MIC
[23] = Enterobacter cloacae, BL alone or BL/BLI: AVI, REL, TAN, DUR 4 mg/L, VAB, XER 8 mg/L, ZID, NAC 1:1, read-out: MIC
[24] = Klebsiella pneumoniae, β-lactamase inhibitor alone, read-out: MIC
[25] = Escherichia coli, β-lactamase inhibitor alone, read-out: MIC
[26] = Enterobacter cloacae, β-lactamase inhibitor alone, read-out: MIC

SMILES: CC(C)(O/N=C(\C(=O)N[C@@H]1C(=O)N2C(C(=O)[O-])=C(C[n+]3ccccc3)CS[C@H]12)c1csc(N)n1)C(=O)O [CAZ, ceftazidime]
- MIC [1, 20]: 0.5 mg/L
- MIC [1, 21]: 0.5 mg/L
- MIC [2, 20]: 0.5 mg/L
- MIC [2, 21]: 0.5 mg/L
- MIC ([3]; E. coli 103, ceftazidime alone or with BLI at 4 mg/L): 4 mg/L
- MIC ([3]; Escherichia coli): 4 mg/L
- MIC [4, 20]: 0.25 mg/L
- MIC [4, 22]: 0.25 mg/L
- MIC [5, 20]: 1 mg/L
- MIC [5, 23]: 1 mg/L
- MIC ([6]; K. pneumoniae 413, ceftazidime alone or with BLI at 4 mg/L): 32 mg/L
- MIC ([6]; Klebsiella pneumoniae): 32 mg/L
- MIC [7, 20]: 0.25 mg/L
- MIC [7, 21]: 0.25 mg/L
- MIC ([8]; E. coli 177, ceftazidime alone or with BLI at 4 mg/L): 128 mg/L
- MIC ([8]; Escherichia coli): 128 mg/L
- MIC [9, 20]: 0.5 mg/L
- MIC [9, 21]: 0.5 mg/L
- MIC [10, 20]: 0.25 mg/L
- MIC [10, 22]: 0.25 mg/L
- MIC [11, 20]: 0.5 mg/L
- MIC [11, 23]: 0.5 mg/L
- MIC [12, 20]: 0.5 mg/L
- MIC [12, 21]: 0.5 mg/L
- MIC ([13]; E. cloacae 272, ceftazidime alone or with BLI at 4 mg/L): ≥256 mg/L
- MIC ([13]; Enterobacter cloacae): ≥ 256 mg/L
- MIC ([14]; K. pneumoniae 125, ceftazidime alone or with BLI at 4 mg/L): 64 mg/L
- MIC ([14]; Klebsiella pneumoniae): 64 mg/L
- MIC ([15]; E. cloacae 235, ceftazidime alone or with BLI at 4 mg/L): 128 mg/L
- MIC ([15]; Enterobacter cloacae): 128 mg/L
- MIC ([16]; K. pneumoniae 238, ceftazidime alone or with BLI at 4 mg/L): 32 mg/L
- MIC ([16]; Klebsiella pneumoniae): 32 mg/L
- MIC ([17]; K. pneumoniae 23, ceftazidime alone or with BLI at 4 mg/L): 128 mg/L
- MIC ([17]; Klebsiella pneumoniae): 128 mg/L
- MIC ([18]; K. pneumoniae 19, ceftazidime alone or with BLI at 4 mg/L): 32 mg/L
- MIC ([18]; Klebsiella pneumoniae): 32 mg/L
- MIC (E. coli TG1; BL alone or BL/BLI: AVI, REL, TAN, DUR 4 mg/L, VAB, XER 8 mg/L, ZID, NAC 1:1): 0.25 mg/L (≈ 0.457 µM)
- MIC (E. coli TG1; [20]): 0.12 mg/L (≈ 0.22 µM)
- MIC (E. coli TG1 (OXA-48); E. coli TG1 (OXA-48), ceftazidime alone or with BLI at 4 mg/L): 0.25 mg/L (≈ 0.457 µM)
- MIC (E. coli TG1 (OXA-48); Escherichia coli): 0.25 mg/L (≈ 0.457 µM)
- MIC ([19]; E. coli HB4 ΔompC/F (OXA-48), ceftazidime alone or with BLI at 4 mg/L): 1 mg/L (≈ 1.83 µM)
- MIC ([19]; Escherichia coli): 1 mg/L (≈ 1.83 µM)
- MIC (E. coli HB4 ΔompC/F; E. coli HB4 ΔompC/F, ceftazidime alone or with BLI at 4 mg/L): 1 mg/L (≈ 1.83 µM)
- MIC (E. coli HB4 ΔompC/F; Escherichia coli): 1 mg/L (≈ 1.83 µM)

SMILES: CC1=C[C@@H]2CN(C(=O)N2OS(=O)(=O)O)[C@@H]1C(N)=O [Durlobactam, durlobactam]
- MIC [1, 24]: 0.5 mg/L
- MIC [2, 24]: 1 mg/L
- MIC ([3]; Escherichia coli): 0.25 mg/L
- MIC [4, 25]: 0.25 mg/L
- MIC [5, 26]: 1 mg/L
- MIC ([6]; Klebsiella pneumoniae): 4 mg/L
- MIC [7, 24]: 0.5 mg/L
- MIC ([8]; Escherichia coli): 2 mg/L
- MIC [9, 24]: 2 mg/L
- MIC [10, 25]: 0.25 mg/L
- MIC [11, 26]: 4 mg/L
- MIC [12, 24]: 2 mg/L
- MIC ([13]; Enterobacter cloacae): 1 mg/L
- MIC ([14]; Klebsiella pneumoniae): 2 mg/L
- MIC ([15]; Enterobacter cloacae): 4 mg/L
- MIC ([16]; Klebsiella pneumoniae): 0.5 mg/L
- MIC ([17]; Klebsiella pneumoniae): 0.5 mg/L
- MIC ([18]; Klebsiella pneumoniae): 2 mg/L
- MIC (E. coli TG1; β-lactamase inhibitor alone): 0.12 mg/L (≈ 0.433 µM)
- MIC (E. coli TG1 (OXA-48); Escherichia coli): 0.12 mg/L (≈ 0.433 µM)
- MIC ([19]; Escherichia coli): 1 mg/L (≈ 3.61 µM)
- MIC (E. coli HB4 ΔompC/F; Escherichia coli): 0.5 mg/L (≈ 1.8 µM)

From paper PMC11823609, “Advancements in the fight against globally distributed OXA-48 carbapenemase: evaluating the new generation of carbapenemase inhibitors” (Antimicrobial Agents and Chemotherapy, 2025)
